# What was measured:
# [1] = test system: Human umbilical vein endothelial cells
# [2] = molecular target: T1, Recombinant dengue 2 virus envelope protein (Dengue virus type 2, UniProt P27914); experiment: Envelope protein binding assay with competitive antagonists, Vero cells, flow cytometry; format: cell-based
# T1 construct: extending from the start codon to the beginning of the transmembrane region (nucleotides 1 to 1272); CD5 signal peptide (N); made in house; host or cells: COS-7 cells (transfected; purified from cell lysate on protein A)
# Protocol: Panels A-D: Competitive antagonists. Recombinant dengue 2 virus envelope protein was co-incubated with Vero cells in the presence of potential competitive antagonists, and the degree of binding was quantitated by flow cytometry. Abscissa: Competitive antagonist. Binding of envelope protein without antagonist is indicated by dengue Env column. Background binding (cells incubated with normal human IgG instead of envelope protein) is indicated by Control IgG column. Ordinate: Median fluorescence intensity derived from flow cytometry histograms for each sample.
# Vero cells were detached from their culture surface without proteases (incubated in cation-free phosphate buffered saline (PBS, Gibco-BRL) with 5 mM EDTA, 10 min. 37° C., washed, and incubated with envelope protein (10 μg/ml) and competitive antagonists (10 μg/ml unless otherwise indicated) in cation containing PBS with 1% normal goat serum (Gibco-BRL), for 1 hour at 4° C. Cells were washed two times, incubated with R-phycoerythrin labeled Fab2 fragment of affinity purified goat antibody to human IgG Fc (5 μg/ml, Jackson Labs.) for 1 hour at 4° C., and washed two times. Cellular fluorescence and forward angle light scatter were quantitated by flow cytometry (FACScan, Becton Dickinson). A minimum of 10,000 cells was assessed from each treatment group. Data were accumulated only for viable cells; non-viable cells were excluded from analysis on the basis of low forward angle light scatter. Results were expressed as frequency histograms of fluorescence per cell. A value for median fluorescence intensity was derived from the fluorescence frequency histograms for each sample, and used to compare fluorescence between samples. In each experiment, controls consisted of untreated cells, cells incubated with only the secondary fluorochrome-labeled antibody, and cells incubated with normal human IgG followed by the secondary fluorochrome-labeled antibody.
# Chondroitin sulfate (CS) from bovine trachea, dermatan sulfate (DS) from bovine mucosa, heparan sulfate (HS) from bovine kidney, heparin from bovine lung, keratan sulfate (KS) from bovine cornea, and dextran sulfate (DexS) (MW 5×105) were obtained from Sigma Chemical Co. and used at a concentration of 10 μg/ml.
# [3] = test system: dengue 2 New Guinea C strain virus; experiment: Infectivity assay, dengue virus infection of Vero cells (cytopathic effect); format: cell-based, dengue 2 virus
compound,measurement,setting,value
[Na+].[O-][Cl+2]([O-])[O-] [sodium chlorate],envelope protein binding after sulfation inhibition,Vero cells,complete loss of binding
same,envelope protein binding after sulfation inhibition,[1],dose dependent partial inhibition of binding
Cc1ccc(C(=O)Nc2ccc(S(=O)(=O)O)c3cc(S(=O)(=O)O)cc(S(=O)(=O)O)c23)cc1NC(=O)c1cccc(NC(=O)Nc2cccc(C(=O)Nc3cc(C(=O)Nc4ccc(S(=O)(=O)O)c5cc(S(=O)(=O)O)cc(S(=O)(=O)O)c45)ccc3C)c2)c1 [Suramin],inhibition of envelope protein binding by polyanionic compounds,[2],inhibited envelope protein binding
same,effect on infectious titer,"[3]; Vero cells incubated with compound, washed before exposure to virus",no effect on infectious titer
same,prevention of dengue virus infection of Vero cells,"[3]; high doses (0-2.5 mg/ml), compound incubated with virus",completely protective at high doses
sulfated lactobionic acid,inhibition of envelope protein binding by polyanionic compounds,[2],inhibited envelope protein binding
dextran sulfate [DexS],inhibition of envelope protein binding to Vero cells (competitive antagonist),[2]; antagonist 10 μg/ml,no effect
same,inhibition of envelope protein binding to Vero cells (competitive antagonist),[2]; concentrations up to 30 μg/ml,no inhibitory effect
